Tests used:
RAW 264.7 macrophages [1] = test: Flow cytometric cytotoxicity (Zombie Aqua viability dye) in macrophages; format: cell-based; conditions: mouse, 70 %
Procedure: (§1) Macrophage cell culture. RAW 264.7 macrophages were purchased from ATCC and were cultured in T75 polystyrene tissue culture flasks (BD Biosciences) in Dulbecco's Modified Eagle Medium supplemented with 10% fetal bovine serum (FBS) (Gibco) and 1% penicillin/streptomycin antibiotics (Life Technologies). Cells were passaged by mechanical scraping after reaching 70-80% confluency.
(§2) Flow cytometric analysis of nanocarrier uptake and cytotoxicity. For each specified cell line, a total of 100,000 cells were seeded per well in 24-well polystyrene plates (Falcon). Cells were allowed to adhere overnight at 37° C., 4.0% CO2. For uptake studies involving endocytosis inhibitor pre-treatments, cells were incubated with either PBS (i.e., no inhibitor), cytochalasin D (CytD, 50 μM) phagocytosis inhibitor, or chlorpromazine (CPZ, 50 μM) clathrin-mediated endocytosis inhibitor prior to administering nanocarriers. Inhibitor concentrations were chosen based on published reports^36,53. Cells were treated with nanocarriers at the specified polymer concentration for 2 h. […] A total of 10,000 single cell events were recorded per sample and the resulting data were analyzed using the Cytobank analysis suite^54. The median fluorescence intensity (MFI) was normalized by subtracting the average MFI from untreated cells and was used to quantify the cellular uptake of nanocarriers.

RAW 264.7 macrophages [2] = test: Flow cytometric analysis of nanocarrier uptake by macrophages (MFI), with or without endocytosis inhibitors; format: cell-based; conditions: 50 μM CytD or 50 μM CPZ pre-treatment; nanocarriers at 1.0 mg/mL polymer
Procedure: as §1, §2

CCO [70% ethanol, ethanol]
macrophage viability (RAW 264.7 macrophages [1]): below 30%

CN(C)CCCN1c2ccccc2Sc2ccc(Cl)cc21 [chlorpromazine]
nanocarrier uptake after pre-treatment with endocytosis inhibitors (in words) (RAW 264.7 macrophages [2]): decreased uptake of all structures

C=C1[C@@H](C)[C@H]2[C@H](Cc3ccccc3)NC(=O)[C@]23[C@H](OC(C)=O)/C=C/[C@@](C)(O)C(=O)[C@@H](C)C/C=C/[C@H]3[C@@H]1O [cytochalasin D]
nanocarrier uptake after pre-treatment with endocytosis inhibitors (in words) (RAW 264.7 macrophages [2]): decreased uptake of all structures
